Source: patent US11339130B1 (Blade Therapeutics, Inc., priority 2016, dated 2022)

Experiments:
Type in all cases: biochemical
Human Calpain 2/NS1 = biological target: T1, Human Calpain 2/NS1 (Homo sapiens, UniProt P17655); assay: Calpain inhibition continuous fluorescence (FRET) assay, Human Calpain 2/NS1; conditions: Column B; read-out: Human Calpain 2/NS1 IC50
T1 sequence (P17655 1-700): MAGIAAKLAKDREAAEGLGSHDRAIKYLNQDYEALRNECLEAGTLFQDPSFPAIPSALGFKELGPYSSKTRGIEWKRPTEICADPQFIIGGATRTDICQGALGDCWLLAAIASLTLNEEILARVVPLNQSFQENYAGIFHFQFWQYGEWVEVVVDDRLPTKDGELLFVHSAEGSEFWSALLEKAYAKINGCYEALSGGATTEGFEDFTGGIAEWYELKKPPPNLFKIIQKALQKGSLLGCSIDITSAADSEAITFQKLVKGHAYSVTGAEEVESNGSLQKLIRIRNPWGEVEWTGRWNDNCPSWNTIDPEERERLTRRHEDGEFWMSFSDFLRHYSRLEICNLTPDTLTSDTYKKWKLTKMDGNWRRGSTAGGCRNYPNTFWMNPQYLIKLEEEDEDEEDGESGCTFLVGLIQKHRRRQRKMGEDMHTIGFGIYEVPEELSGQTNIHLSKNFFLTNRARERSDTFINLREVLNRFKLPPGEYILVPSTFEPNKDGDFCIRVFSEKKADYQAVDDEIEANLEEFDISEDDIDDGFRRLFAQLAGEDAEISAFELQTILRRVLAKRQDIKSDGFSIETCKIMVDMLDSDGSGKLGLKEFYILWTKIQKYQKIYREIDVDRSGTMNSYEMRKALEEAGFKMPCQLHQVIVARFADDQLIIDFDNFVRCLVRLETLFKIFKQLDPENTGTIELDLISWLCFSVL
T1 sequence (P04632 1-268 partner): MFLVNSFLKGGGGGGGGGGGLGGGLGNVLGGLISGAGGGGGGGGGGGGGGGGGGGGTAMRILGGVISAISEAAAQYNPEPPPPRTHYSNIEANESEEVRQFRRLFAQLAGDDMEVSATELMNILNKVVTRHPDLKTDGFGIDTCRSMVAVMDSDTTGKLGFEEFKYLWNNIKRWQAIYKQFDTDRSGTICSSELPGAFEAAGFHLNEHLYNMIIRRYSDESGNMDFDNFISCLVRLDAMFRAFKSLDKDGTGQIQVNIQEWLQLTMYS
Experimental: (§1) Calpain 1, 2, and 9 activity and inhibition thereof was assessed by means of a continuous fluorescence assay. The SensoLyte 520 Calpain substrate (Anaspec Inc) was optimized for detecting calpain activity. This substrate contains an internally quenched 5-FAM/QXL™ 520 FRET pair. Calpains 1, 2, and 9 cleave the FRET substrate into two separate fragments resulting in an increase of 5-FAM fluorescence that is proportional to calpain activity
(§2) Assays were typically setup in black 384-well plates using automated liquid handling as follows. Calpain assay base buffer typically contains 50 mM Tris, pH 7.5, 100 mM NaCl and 1 mM DTT. Inhibitors were serially diluted in DMSO and used to setup 2× mixtures with calpains in the aforementioned buffer. After incubation at ambient temperature (25C), the reaction was initiated by adding a 2× mix of the fluorescent peptide substrate and CaCl2) (required for in-situ calpain activation) in the same buffer. Reaction progress curve data were typically collected for 10 min using excitation/emission wavelengths of 490 nm/520 nm on SpectraMax i3× or the FLIPR-Tetra plate readers (Molecular Devices Inc). Reaction rates were calculated from progress curve slopes typically over 1-5 min. Dose response curves (rate vs. log inhibitor concentration) were typically fit to a 4-parameter logistic function to extract IC50 values.

Human Calpain 1/NS1 = biological target: T2, Human Calpain 1/NS1 (Homo sapiens, UniProt P07384); assay: Calpain inhibition continuous fluorescence (FRET) assay, Human Calpain 1/NS1; conditions: Column A; read-out: Human Calpain 1/NS1 IC50
T2 sequence (P07384 1-714): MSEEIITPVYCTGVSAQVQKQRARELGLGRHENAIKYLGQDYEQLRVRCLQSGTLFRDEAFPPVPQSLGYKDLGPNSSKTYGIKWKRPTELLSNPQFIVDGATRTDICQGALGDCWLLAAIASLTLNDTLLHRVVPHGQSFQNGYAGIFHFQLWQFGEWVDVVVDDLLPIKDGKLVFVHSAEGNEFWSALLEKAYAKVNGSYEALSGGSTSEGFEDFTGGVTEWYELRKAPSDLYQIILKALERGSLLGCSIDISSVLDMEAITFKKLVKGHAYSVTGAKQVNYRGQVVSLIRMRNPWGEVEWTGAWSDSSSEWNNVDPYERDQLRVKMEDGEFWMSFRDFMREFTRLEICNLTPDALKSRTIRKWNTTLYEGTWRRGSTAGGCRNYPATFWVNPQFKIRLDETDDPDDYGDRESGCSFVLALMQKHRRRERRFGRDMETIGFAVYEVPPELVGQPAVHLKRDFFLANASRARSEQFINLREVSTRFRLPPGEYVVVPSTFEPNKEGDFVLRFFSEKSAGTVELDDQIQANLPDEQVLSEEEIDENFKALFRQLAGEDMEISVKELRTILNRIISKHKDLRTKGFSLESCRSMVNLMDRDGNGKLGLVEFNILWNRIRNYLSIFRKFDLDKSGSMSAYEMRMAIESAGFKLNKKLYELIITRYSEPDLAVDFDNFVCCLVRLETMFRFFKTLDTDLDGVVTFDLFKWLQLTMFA
T2 sequence (P04632 1-268 partner): T1 sequence (P04632 1-268 partner)
Experimental: as §1, §2

Human Calpain 9/NS1 = biological target: T3, Human Calpain 9/NS1 (Homo sapiens, UniProt O14815); assay: Calpain inhibition continuous fluorescence (FRET) assay, Human Calpain 9/NS1; conditions: Column C; read-out: Human Calpain 9/NS1 IC50
T3 sequence (O14815 1-690): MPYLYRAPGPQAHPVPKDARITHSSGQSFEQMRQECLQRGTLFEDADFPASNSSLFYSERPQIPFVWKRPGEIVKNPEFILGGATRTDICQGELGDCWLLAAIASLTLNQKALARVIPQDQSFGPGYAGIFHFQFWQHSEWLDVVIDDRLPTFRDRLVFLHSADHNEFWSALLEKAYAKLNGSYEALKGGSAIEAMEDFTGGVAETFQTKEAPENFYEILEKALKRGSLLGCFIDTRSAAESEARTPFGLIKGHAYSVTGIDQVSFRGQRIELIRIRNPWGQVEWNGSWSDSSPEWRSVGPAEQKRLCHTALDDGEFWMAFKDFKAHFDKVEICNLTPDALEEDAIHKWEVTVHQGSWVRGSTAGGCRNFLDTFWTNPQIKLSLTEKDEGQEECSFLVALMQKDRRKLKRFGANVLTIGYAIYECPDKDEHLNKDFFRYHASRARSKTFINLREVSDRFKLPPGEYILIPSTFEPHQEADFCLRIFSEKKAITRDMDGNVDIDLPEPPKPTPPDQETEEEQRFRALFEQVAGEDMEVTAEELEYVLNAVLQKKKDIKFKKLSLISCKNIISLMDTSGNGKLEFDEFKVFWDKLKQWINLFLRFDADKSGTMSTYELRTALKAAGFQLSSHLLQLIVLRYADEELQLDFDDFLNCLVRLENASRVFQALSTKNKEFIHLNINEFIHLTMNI
T3 sequence (P04632 1-268 partner): T1 sequence (P04632 1-268 partner)
Experimental: as §1, §2

SMILES	IC50 (Human Calpain 2/NS1) [µM]	IC50 (Human Calpain 1/NS1) [µM]	IC50 (Human Calpain 9/NS1) [µM]
O=C(NC1CC1)C(=O)[C@H](Cc1ccccc1)NC(=O)c1cncn1-c1ccn(-c2ccccc2)n1 [Compound 42, (S)—N-(4-(cyclopropylamino)-3,4-dioxo-1-phenylbutan-2-yl)-1-(1-phenyl-1H-pyrazol-3-yl)-1H-imidazole-5-carboxamide]	< 3	< 3	> 10
COc1ccc(C[C@H](NC(=O)c2c(C)noc2-c2ccccc2)C(=O)C(N)=O)cc1 [Compound 46, (S)—N-(4-amino-1-(4-methoxyphenyl)-3,4-dioxobutan-2-yl)-3-methyl-5-phenylisoxazole-4-carboxamide]	< 3	< 3	< 3
CC[C@H](NC(=O)c1c(C)noc1-c1ccccc1)C(=O)C(N)=O [Compound 47]	< 3	< 3	< 3
NC(=O)C(=O)[C@H](Cc1ccccc1)NC(=O)c1[nH]cnc1-c1ccccc1 [Compound 48, (S)—N-(4-amino-3,4-dioxo-1-phenylbutan-2-yl)-4-phenyl-1H-imidazole-5-carboxamide]	3 to 10	3 to 10	3 to 10
NC(=O)C(=O)[C@H](Cc1ccccc1)NC(=O)c1cncn1-c1ncc(-c2ccccc2)s1 [Compound 52, (S)—N-(4-amino-3,4-dioxo-1-phenylbutan-2-yl)-1-(5-phenylthiazol-2-yl)-1H-imidazole-5-carboxamide]	< 3	< 3	< 3
Cc1nc(C(=O)N[C@@H](Cc2ccccc2)C(=O)C(N)=O)c(-c2ccccc2)s1 [Compound 54, (S)—N-(4-amino-3,4-dioxo-1-phenylbutan-2-yl)-2-methyl-5-phenylthiazole-4-carboxamide]	< 3	< 3	< 3
Cc1noc(-c2ccccc2)c1C(=O)N[C@@H](CC(C)(C)C)C(=O)C(N)=O [Compound 56]	< 3	< 3	< 3
CCCC[C@H](NC(=O)c1c(C)noc1-c1ccccc1)C(=O)C(N)=O [Compound 62, (S)—N-(1-amino-1,2-dioxoheptan-3-yl)-3-methyl-5-phenylisoxazole-4-carboxamide]	< 3	< 3	< 3
Cc1cc(C(=O)N[C@@H](Cc2ccccc2)C(=O)C(=O)NC2CC2)n(-c2ncccn2)n1 [Compound 65, (S)—N-(4-(cyclopropylamino)-3,4-dioxo-1-phenylbutan-2-yl)-3-methyl-1-(pyrimidin-2-yl)-1H-pyrazole-5-carboxamide]	> 10	> 10	> 10
Cc1cc(C(=O)N[C@@H](Cc2ccccc2)C(=O)C(N)=O)n(-c2ncccc2C)n1 [Compound 66, (S)—N-(4-amino-3,4-dioxo-1-phenylbutan-2-yl)-3-methyl-1-(3-methylpyridin-2-yl)-1H-pyrazole-5-carboxamide]	< 3	3 to 10	< 3

Results, then the compound that gave them:

IC50 (Human Calpain 2/NS1) [µM]	IC50 (Human Calpain 1/NS1) [µM]	IC50 (Human Calpain 9/NS1) [µM]	SMILES
< 3	< 3	< 3	NC(=O)C(=O)[C@H](Cc1ccccc1)NC(=O)c1scnc1-n1cc(-c2ccccc2)cn1 [Compound 39, (S)—N-(4-amino-3,4-dioxo-1-phenylbutan-2-yl)-4-(4-phenyl-1H-pyrazol-1-yl)thiazole-5-carboxamide]
< 3	< 3	< 3	NC(=O)C(=O)[C@H](Cc1ccccc1)NC(=O)c1scnc1-n1ncc2ccccc21 [Compound 40, (S)—N-(4-amino-3,4-dioxo-1-phenylbutan-2-yl)-4-(1H-indazol-1-yl)thiazole-5-carboxamide]
< 3	3 to 10	3 to 10	O=C(NC1CC1)C(=O)[C@H](Cc1ccccc1)NC(=O)c1cncn1-c1ccccn1 [Compound 41, (S)—N-(4-(cyclopropylamino)-3,4-dioxo-1-phenylbutan-2-yl)-1-(pyridin-2-yl)-1H-imidazole-5-carboxamide]
< 3	< 3	< 3	O=C(NC1CC1)C(=O)[C@H](Cc1ccccc1)NC(=O)c1cncn1-c1nc2ccccc2s1 [Compound 43, (S)-1-(benzo[d]thiazol-2-yl)-N-(4-(cyclopropylamino)-3,4-dioxo-1-phenylbutan-2-yl)-1H-imidazole-5-carboxamide]
3 to 10	3 to 10	> 10	O=C(NC1CC1)C(=O)[C@H](Cc1ccccc1)NC(=O)c1cncn1-c1n[nH]c2ccccc12 [Compound 51, (S)—N-(4-(cyclopropylamino)-3,4-dioxo-1-phenylbutan-2-yl)-1-(1H-indazol-3-yl)-1H-imidazole-5-carboxamide]
< 3	< 3	3 to 10	O=C(NC1CC1)C(=O)[C@H](Cc1ccccc1)NC(=O)c1cncn1-c1ncc(-c2ccccc2)s1 [Compound 53, (S)—N-(4-(cyclopropylamino)-3,4-dioxo-1-phenylbutan-2-yl)-1-(5-phenylthiazol-2-yl)-1H-imidazole-5-carboxamide]
< 3	< 3	< 3	O=C(NC1CC1)C(=O)[C@H](Cc1ccccc1)NC(=O)c1scnc1-c1ccccn1 [Compound 61]
< 3	< 3	< 3	O=C(NC1CC1)C(=O)[C@H](Cc1ccccc1)NC(=O)c1scnc1-n1cc2ccccc2n1 [Compound 64, (S)—N-(4-(cyclopropylamino)-3,4-dioxo-1-phenylbutan-2-yl)-4-(2H-indazol-2-yl)thiazole-5-carboxamide]
